How the values were obtained:
Assay in all cases: relative viability (nuclei count vs DMSO), 5 days (fraction); higher = more cells survive
[1] = tested on: HCC-15
Outline: (§1)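 The day after seeding in 1536-well plates, lung cancer cell lines were treated by pin tool with a single drug, or with a fixed anchor-drug dose together with five library-drug doses (not always all listed) in √10 steps. After 5 days, a combined fix-and-stain solution (final 0.05% Triton X-100, 1% formaldehyde, 1 ug/ml Hoechst) was added. Nuclei counted on 4× images gave relative viability as treated counts over vehicle counts, reported as the median of duplicate plates.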

[2] = tested on: HCC-827
Outline: as §1

[3] = tested on: COR-L 105
Outline: as §1

[4] = tested on: HCC-44
Outline: as §1

[5] = tested on: EPLC-272H
Outline: as §1

[6] = tested on: NCI-H522
Outline: as §1

[7] = tested on: SK-MES-1
Outline: as §1

[8] = tested on: HCC-78
Outline: as §1

[9] = tested on: NCI-H1648
Outline: as §1

[10] = tested on: NCI-H2009
Outline: as §1

[11] = tested on: NCI-H596
Outline: as §1

[12] = tested on: RERF-LC-KJ
Outline: as §1

[13] = tested on: NCI-H661
Outline: as §1

[14] = tested on: SW 1573
Outline: as §1

[15] = tested on: NCI-H650
Outline: as §1

[16] = tested on: LCLC-97TM1
Outline: as §1

[17] = tested on: NCI-H1395
Outline: as §1

[18] = tested on: NCI-H1792
Outline: as §1

[19] = tested on: NCI-H647
Outline: as §1

[20] = tested on: HCC-366
Outline: as §1

[21] = tested on: NCI-H1993
Outline: as §1

[22] = tested on: NCI-H358
Outline: as §1

C=C1C(=O)O[C@@H](CCCCCCCC)[C@@H]1C(=O)O [C-75] + CC(=O)Nc1cccc(-n2c(=O)n(C3CC3)c(=O)c3c(Nc4ccc(I)cc4F)n(C)c(=O)c(C)c32)c1 [Trametinib] (partner 0.02 µM)
relative viability ([1]; first compound 0.08 µM): 0.387 | relative viability ([1]; first compound 0.253 µM): 0.366 | relative viability ([1]; first compound 0.8 µM): 0.375 | relative viability ([1]; first compound 2.53 µM): 0.33 | relative viability ([1]; first compound 8 µM): 0.426 | relative viability ([2]; first compound 0.253 µM): 0.786 | relative viability ([2]; first compound 0.8 µM): 0.558 | relative viability ([2]; first compound 8 µM): 0.55 | relative viability ([3]; first compound 0.08 µM): 0.425 | relative viability ([3]; first compound 0.253 µM): 0.458 | relative viability ([3]; first compound 0.8 µM): 0.428 | relative viability ([3]; first compound 2.53 µM): 0.427 | relative viability ([3]; first compound 8 µM): 0.497 | relative viability ([4]; first compound 0.08 µM): 1.03 | relative viability ([4]; first compound 0.253 µM): 1.14 | relative viability ([4]; first compound 0.8 µM): 0.964 | relative viability ([4]; first compound 2.53 µM): 0.991 | relative viability ([4]; first compound 8 µM): 1.09 | relative viability ([5]; first compound 0.08 µM): 0.311 | relative viability ([5]; first compound 0.253 µM): 0.341 | relative viability ([5]; first compound 0.8 µM): 0.27 | relative viability ([5]; first compound 2.53 µM): 0.299 | relative viability ([5]; first compound 8 µM): 0.363 | relative viability ([6]; first compound 0.08 µM): 0.784 | relative viability ([6]; first compound 0.253 µM): 0.61 | relative viability ([6]; first compound 0.8 µM): 0.747 | relative viability ([6]; first compound 2.53 µM): 0.845 | relative viability ([6]; first compound 8 µM): 0.604 | relative viability ([7]; first compound 0.08 µM): 0.538 | relative viability ([7]; first compound 0.253 µM): 0.542 | relative viability ([7]; first compound 0.8 µM): 0.48 | relative viability ([7]; first compound 2.53 µM): 0.478 | relative viability ([7]; first compound 8 µM): 0.438 | relative viability ([8]; first compound 0.08 µM): 0.776 | relative viability ([8]; first compound 0.253 µM): 0.935 | relative viability ([8]; first compound 0.8 µM): 0.782 | relative viability ([8]; first compound 8 µM): 0.62 | relative viability ([9]; first compound 0.08 µM): 0.435 | relative viability ([9]; first compound 0.253 µM): 0.658 | relative viability ([9]; first compound 0.8 µM): 0.447 | relative viability ([9]; first compound 8 µM): 0.443 | relative viability ([10]; first compound 0.08 µM): 0.277 | relative viability ([10]; first compound 0.253 µM): 0.249 | relative viability ([10]; first compound 0.8 µM): 0.282 | relative viability ([10]; first compound 2.53 µM): 0.262 | relative viability ([10]; first compound 8 µM): 0.332 | relative viability ([11]; first compound 0.08 µM): 1.02 | relative viability ([11]; first compound 0.253 µM): 0.837 | relative viability ([11]; first compound 0.8 µM): 0.815 | relative viability ([11]; first compound 2.53 µM): 0.722 | relative viability ([11]; first compound 8 µM): 0.744 | relative viability ([12]; first compound 0.08 µM): 0.874 | relative viability ([12]; first compound 0.253 µM): 0.945 | relative viability ([12]; first compound 0.8 µM): 0.925 | relative viability ([12]; first compound 2.53 µM): 0.918 | relative viability ([12]; first compound 8 µM): 0.866 | relative viability ([13]; first compound 0.08 µM): 0.524 | relative viability ([13]; first compound 0.253 µM): 0.612 | relative viability ([13]; first compound 0.8 µM): 0.516 | relative viability ([13]; first compound 2.53 µM): 0.429 | relative viability ([13]; first compound 8 µM): 0.458 | relative viability ([14]; first compound 0.08 µM): 0.586 | relative viability ([14]; first compound 0.253 µM): 0.596 | relative viability ([14]; first compound 0.8 µM): 0.547 | relative viability ([14]; first compound 2.53 µM): 0.553 | relative viability ([14]; first compound 8 µM): 0.557 | relative viability ([15]; first compound 0.08 µM): 0.965 | relative viability ([15]; first compound 0.253 µM): 0.961 | relative viability ([15]; first compound 0.8 µM): 0.967 | relative viability ([15]; first compound 2.53 µM): 0.768 | relative viability ([15]; first compound 8 µM): 1 | relative viability ([16]; first compound 0.08 µM): 0.211 | relative viability ([16]; first compound 0.253 µM): 0.162 | relative viability ([16]; first compound 0.8 µM): 0.193 | relative viability ([16]; first compound 2.53 µM): 0.175 | relative viability ([16]; first compound 8 µM): 0.177 | relative viability ([17]; first compound 0.08 µM): 0.973 | relative viability ([17]; first compound 0.253 µM): 1.05 | relative viability ([17]; first compound 2.53 µM): 1.03 | relative viability ([17]; first compound 8 µM): 0.933 | relative viability ([18]; first compound 0.08 µM): 0.474 | relative viability ([18]; first compound 0.253 µM): 0.574 | relative viability ([18]; first compound 0.8 µM): 0.438 | relative viability ([18]; first compound 2.53 µM): 0.341 | relative viability ([18]; first compound 8 µM): 0.452 | relative viability ([19]; first compound 0.08 µM): 0.463 | relative viability ([19]; first compound 0.253 µM): 0.533 | relative viability ([19]; first compound 0.8 µM): 0.361 | relative viability ([19]; first compound 2.53 µM): 0.429 | relative viability ([19]; first compound 8 µM): 0.28 | relative viability ([20]; first compound 0.08 µM): 0.356 | relative viability ([20]; first compound 0.253 µM): 0.426 | relative viability ([20]; first compound 0.8 µM): 0.327 | relative viability ([20]; first compound 2.53 µM): 0.285 | relative viability ([20]; first compound 8 µM): 0.326 | relative viability ([21]; first compound 0.08 µM): 0.573 | relative viability ([21]; first compound 0.253 µM): 0.541 | relative viability ([21]; first compound 0.8 µM): 0.507 | relative viability ([21]; first compound 2.53 µM): 0.576 | relative viability ([21]; first compound 8 µM): 0.557 | relative viability ([22]; first compound 0.08 µM): 0.158 | relative viability ([22]; first compound 0.253 µM): 0.13 | relative viability ([22]; first compound 0.8 µM): 0.151 | relative viability ([22]; first compound 8 µM): 0.121

— the supplement of paper PMC10307832
